Source: US20130317052A1, “QUINOLINE DERIVATIVE COMPOUND, METHOD FOR PREPARING SAME, AND PHARMACEUTICAL COMPOSITION CONTAINING SAME” (Dong-A ST Co., Ltd., priority 2010, published 2013)

Legend:
[1] = Gastric emptying effect on normal rat, semi-solid test meal; assay type: in vivo, Sprague-Dawley rats; details: for Gastric Emptying (%): 45 min before test meal, stomach weighed 35 min after meal
Method: Gastric emptying activity of the compounds of the present invention was examined in the following experiment.
Sprague-Dawley rats, each weighing 200˜250 g, were acclimated for one week at a temperature of 22˜24° C. and a humidity of 60-80% while a standard diet and water were provided, and then were divided into groups according to weight. Thereafter, they were starved for 24 hrs before an experiment while water was provided. From 3 hrs before the experiment, no more water was provided. […] For control 1, only 1 mL of a 3% hydroxypropylmethyl cellulose solution was used while sisapride was orally administered at a dose of 1 mg/kg in 1 mL of a 3% hydroxypropylmethyl cellulose to control 2.
After 45 min, a semi-solid test meal prepared by mashing feeds in water, was orally administered in an amount of 2 mL to each rat. After 35 min, the SD rats were killed, and the stomach containing the semi-solid test meal was excised, and weighed. Subsequently, the stomach was washed with distilled water to remove the gut content, dried, and weighed again, in order to calculate the weight of the semi-solid test meal left in the gut.
Gastric Emptying(%)=[1−(weight of semi-solid test meal left in gut/weight of semi-solid test meal at 0-time)]×100 [Equation 3]
(weight of semi-solid test meal at 0-time means weight of the semi-solid test meal left in the rat killed immediately after the administration of the semi-solid test meal)

serotonin-1B receptor = target: T1, serotonin-1B receptor (Rattus norvegicus, UniProt P28564); assay: Assay for affinity for serotonin-1B receptor: competitive inhibition of [125I]cyanopindolol binding to rat cerebral cortex membranes; details: 10 μM compound, 10 pM [125I]cyanopindolol, mean of two experiments
T1 construct: cell membranes of the cerebral cortex excised from male Winstar rats; from tissue; host or cells: rat cerebral cortex membranes
T1 sequence (P28564 whole entry): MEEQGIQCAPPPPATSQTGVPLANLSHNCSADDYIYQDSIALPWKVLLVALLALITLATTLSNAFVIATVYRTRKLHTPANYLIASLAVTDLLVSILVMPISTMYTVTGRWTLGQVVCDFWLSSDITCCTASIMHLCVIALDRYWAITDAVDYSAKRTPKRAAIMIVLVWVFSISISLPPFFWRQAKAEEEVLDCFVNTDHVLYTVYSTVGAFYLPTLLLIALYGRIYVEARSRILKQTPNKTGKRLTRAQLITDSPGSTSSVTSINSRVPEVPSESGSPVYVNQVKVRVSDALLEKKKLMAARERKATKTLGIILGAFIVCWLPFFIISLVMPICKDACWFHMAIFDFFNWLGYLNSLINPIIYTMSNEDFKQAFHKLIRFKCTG
Method: Compounds of the present invention were examined for affinity for the serotonin-1B receptor which can exert a relaxation effect on the stomach to relieve impaired gastric accommodation of functional dyspepsia patients in response to an agonist.
In a Tris-HCl buffer (50 mM Tris-HCl, pH 7.4, 120 mM NaCl, 5 mM KCl, 2 mM CaCl2, 1 mM MgCl2), 4 mg of cell membranes of the cerebral cortex excised from male Winstar rats, each weighing 175±25 g, was incubated at 37° C. for 1.5 hrs with 10 pM of ^125[I] cyanopindolol (PerkinElmer, 100 μCi) and 10 μM of the compound of interest of the present invention per well. After completion of the incubation, the incubation mixture was filtered through Whatman GF/B filter (unifilter-96, Lot: 6005177, PerkinElmer) to separate ligand-bound receptors. These bound receptors were washed three times with 5 mL of a Tris-HCl buffer. Then, 10 mL of a scintillation cocktail (Lot: 03999, Fluka) was added and reacted for 16 hrs or longer to measure radiation activity using a beta-counter (Packcard) in order to calculate the quantity of ^125[I] cyanopindolol bound to the receptor.
Meanwhile, 10 μM of serotonin (H9523, Sigma) was incubated in the presence of 10 pM of ^125[I] cyanopindolol to determine a nonspecific binding value. The experiment was independently carried out twice, and receptor affinity was calculated using the following Equation 2. […]

[2] = target: T2, dopamine-D2 receptor (human dopamine D2s) (Homo sapiens, UniProt P14416); assay: Assay for affinity for dopamine receptor: competitive inhibition of [3H]spiperone binding; details: 10 μM compound; 0.16 nM [3H]spiperone; CHO cells transfected with human dopamine D2s gene; mean of two experiments
T2 construct: expressed in transfected cells; host or cells: CHO cells
T2 sequence (P14416 1-414 isoform P14416-2): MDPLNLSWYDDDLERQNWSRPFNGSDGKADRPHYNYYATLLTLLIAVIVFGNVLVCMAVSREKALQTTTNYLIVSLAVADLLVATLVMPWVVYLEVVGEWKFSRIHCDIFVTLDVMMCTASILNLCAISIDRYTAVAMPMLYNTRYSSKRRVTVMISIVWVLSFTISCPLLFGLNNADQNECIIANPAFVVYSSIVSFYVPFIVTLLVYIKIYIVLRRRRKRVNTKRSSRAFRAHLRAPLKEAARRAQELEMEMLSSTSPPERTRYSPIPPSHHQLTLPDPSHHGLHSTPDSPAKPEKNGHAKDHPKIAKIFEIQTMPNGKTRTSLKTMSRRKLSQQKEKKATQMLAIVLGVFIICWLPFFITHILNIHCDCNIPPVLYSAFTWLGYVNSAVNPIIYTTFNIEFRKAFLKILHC
Method: Affinity of the compounds of the present invention for the dopamine-D2 receptor, which is found in the wall of the gastric tract of mammals and inhibits gastrointestinal motility, was determined by measuring competitive inhibition against the binding to the receptor of a radio-labeled ligand which is known for its affinity for the receptor. In this regard, the experiment was performed according to the method described in [Heys G et al. Mol Endocrinol. 6:920, 1992] and [Grandy D K et al. Proc Natl Acad Sci USA. 86:9762, 1989].
In tris-HCl buffer ([…], pH 7.4, 120 mM NaCl, 5 mM KCl, 2 mM CaCl2, 1 mM MgCl2) 150 μg of Chinese hamster ovary (CHO) cells transfected with a human dopamine D2s gene were incubated at 25° C. for 120 min with 0.16 nM of tritium Spiperone (^3[H] Spiperon [NEN, 250 μCi]) and 10 μM of the compound of interest of the present invention. After completion of the reaction, the reaction mixture was filtered through Whatman GF/B filter (unifilter-96, Lot: 6005177, PerkinElmer) to separate ligand-bound receptors. These bound receptors were washed three times with a Tris-HCl buffer. Then 10 mL of a scintillation cocktail (Lot: 03999, Fluka) was added and reacted for 16 hrs or longer to measure radiation activity using a beta-counter (Packcard) in order to calculate the quantity of tritium spiperone bound to the receptor. Meanwhile, 10 μM of Haloperidol (H1512, Sigma) was incubated in the presence of 0.16 nM tritium Spiperone to determine a nonspecific binding value. The experiment was independently carried out twice, and receptor affinity was calculated using the following Equation 1.
Receptor Affinity(%)={(Total CPM−Nonspecific Binding CPM−CPM of tritium Spiperone remaining after addition of interest compound of the present invention)/(Total CPM−Nonspecific Binding CPM)}×100 Equation 1
(CPM: counter per minute)

SMILES	Gastric Emptying (%) ([1]; 10 μg/kg oral)	Affinity (%) (serotonin-1B receptor)	Affinity (%) [2] [%]	Gastric Emptying (%) ([1]; 10 mg/kg oral (Table 3))	increase of gastric emptying compared to control 1 (no drug) ([1]; 10 μg/kg oral, normal rat)
COc1cc2c(cc1Oc1cc3c(cc1OC)CC[n+]1cc4c(OC)c(OC)ccc4cc1-3)C[C@@H]1NCCc3cc(OC)c(OC)c-2c31 [Compound of Example 2, (S)-3,9,10-Trimethoxy-2-(1,2,10-trimethoxy-5,6,6a,7-tetrahydro-4H-dibenzo[de,g]quinolin-9-yloxy)-5,6-dihydro-isoquino[3,2-a]isoquinolinylium]	47.3	35	25		
COc1cc(N)c(Cl)cc1C(=O)NC1CCN(CCCOc2ccc(F)cc2)CC1OC (stereo not drawn) [Control 2, sisapride, reference compound]				68.9	
COc1ccc(C(=O)NCc2ccc(OCCN(C)C)cc2)cc1OC [Itopride, reference compound]			75		
COc1cc2c(cc1Oc1cc3c(cc1OC)-c1c(OC)c(OC)cc4ccnc(c14)C3=O)CCN1Cc3c(ccc(OC)c3OC)C[C@@H]21 [Compound of Example 1, (S)-1,2,10-Trimethoxy-9-(2,9,10-trimethoxy-5,8,13,13a-tetrahydro-6H-isoquino[3,2-a]isoquinolin-3-yloxy)-dibenzo[de,g]quinolin-7-one]	62.3	61	91		roughly two-fold
